# Test results as given in patent EP4782453A1 (Beyang Therapeutics Co., Ltd., priority 2023, dated 2025).
# Read-outs that look alike come from different tables or passages of the source.
# Molecular target: T1, Menin-MLL (Homo sapiens, UniProt O00255)
# T1 construct: His-Menin (M1-L615 end); purchased BIORTUS BP9210
# T1 sequence (O00255 1-615 isoform O00255-1): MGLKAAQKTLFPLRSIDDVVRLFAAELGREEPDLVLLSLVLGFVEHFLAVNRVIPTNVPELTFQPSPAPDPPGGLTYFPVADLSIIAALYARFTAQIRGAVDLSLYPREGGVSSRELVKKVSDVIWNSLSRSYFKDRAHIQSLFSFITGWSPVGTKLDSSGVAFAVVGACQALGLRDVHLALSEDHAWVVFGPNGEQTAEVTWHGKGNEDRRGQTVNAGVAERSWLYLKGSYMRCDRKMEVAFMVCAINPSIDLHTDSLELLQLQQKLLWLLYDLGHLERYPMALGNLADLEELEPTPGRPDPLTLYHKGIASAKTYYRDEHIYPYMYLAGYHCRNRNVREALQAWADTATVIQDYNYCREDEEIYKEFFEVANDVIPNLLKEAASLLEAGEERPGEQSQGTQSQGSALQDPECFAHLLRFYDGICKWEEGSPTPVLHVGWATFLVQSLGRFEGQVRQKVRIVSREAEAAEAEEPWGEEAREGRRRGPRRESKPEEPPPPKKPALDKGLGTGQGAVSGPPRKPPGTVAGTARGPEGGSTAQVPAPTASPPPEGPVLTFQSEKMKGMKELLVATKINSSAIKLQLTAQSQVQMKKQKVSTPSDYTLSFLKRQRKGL
# Experiment: Inhibitory activity against Menin-MLL binding (fluorescence polarization)
# Details: 150 nM His-Menin, 15 nM FITC-MLL, 25°C for 60 min
# Description: • His-Menin (M1-L615 end), purchased from BIORTUS, Catalog Number: BP9210; and • FITC-MLL4-43, purchased from GenScript, Catalog Number: C491HFF190-3/PE1324.
# In a 10 µL reaction solution (20 mM HEPES, pH 7.5, 50 mM NaCl, 1 mM DTT, 0.01% BSA) containing any compound from the examples, 150 nM His-Menin was added to a 384-well plate (Corning, Model: 4514). Each concentration was set up in duplicate wells. After centrifugation at 1000 RPM for 1 min, the plate was incubated at 25°C for 15 min. Then, 15 nM […] (20 mM HEPES, pH 7.5, 50 mM NaCl, 1 mM DTT, 0.01% BSA) was added to a 384-well plate. After centrifugation at 1000 RPM for 1 min, the reaction proceeded at 25°C for 60 min. Changes in fluorescence polarization were measured using a plate reader (PerkinElmer, Envision 2104). Based on the measured signals, the binding inhibition rate of the compound at each concentration was calculated, and the IC50 (half-maximal inhibitory concentration) of the compound was determined using statistical analysis software GraphPad Prism (GraphPad Software, Inc.) by means of a nonlinear fitting formula: 4-Parameter Logistic Model or Sigmoidal Dose-Response Model: Y = Bottom + (Top−Bottom)/(1 + 10^((LogIC50−X) × Hill Slope)), [formula] in which X indicates the logarithm of compound concentration, Y indicates a fluorescence polarization mP value, and Top and Bottom indicate the maximum and minimum readouts of fluorescence polarization mP values. Table 1: Inhibitory Activity of Compounds Against Menin-MLL Binding
# [1] = Menin-MLL IC50, fluorescence polarization
# [2] = fluorescence polarization, read-out: Menin-MLL IC50
Compound,IC50 [1] [nM],IC50 [2] [nM]
"CCC(=O)N(c1cc(F)ccc1-c1cc(N2CCN(C(=O)C3NC4CCC3CC4)CC2)cn2c(C)ncc12)C(C)C [Example 77, N-[5-fluoro-2-(3-methyl-6-{4-[(1R,3S,4S)-2-azabicyclo[2.2.2]octan-3-carbonyl]piperazin-1-yl}imidazo[1,5-a]pyridin-8-yl)phenyl]-N-(isopropyl)propionamide]",100,
"CCN(C(=O)c1cc(F)ccc1-c1cc(C2(O)CN(C[C@H]3CC[C@H](NC(=O)OC(C)(C)C)CC3)C2)cc2c1cnn2C)C(C)C [Example 79, N-[(1r,4r)-4-{[3-(4-{2-[ethyl(isopropyl)aminoformyl]-4-fluorophenyl}-1-methyl-1H-indazol-6-yl)-3-hydroxylazacyclobutan-1-yl]methyl}cyclohexyl]tert-butyl carbamate]",,279
"CCN(C(=O)c1cc(F)ccc1-c1cc(C2CCN(CC3CCC(NS(=O)(=O)CC)CC3)C2)cn2c(C)nnc12)C(C)C (centres unmarked) [Example 80, 2-(6-{1-[(4-ethanesulfonamidocyclohexyl)methyl]pyrrolidin-3-yl}-3-methyl-[1,2,4]triazolo[4,3-a]pyridin-8-yl)-N-ethyl-5-fluoro-N-(isopropyl)benzamide]",,122
CCN(C(=O)c1cc(F)ccc1-c1cc(N2CCN(C(=O)[C@@H]3CCCCN3)CC2)cn2c(C)ncc12)C(C)C [Example 81],188,
CCN(C(=O)c1cc(F)ccc1-c1cc(N2CCN(C[C@H]3CC[C@H](NS(=O)(=O)CC)CC3)CC2)cn2c(C)ncc12)C(C)C [Example 84],,165
COc1cc(-c2ccc(CCN3CCN(c4cc(-c5ccc(F)cc5C(=O)N5CCOC[C@H]5C)c5cnc(C)n5c4)CC3)cc2)nnc1OC [Example 86],,152
CCN(C(=O)c1cc(F)ccc1-c1cc(N2CCN(C(=O)[C@H]3N[C@@H]4CC[C@H]3C4)CC2)cn2c(C)ncc12)C(C)C [Example 88],52,
"CCN(C(=O)c1cc(F)ccc1-c1cc(N2CC3(CN(C[C@H]4CC[C@H](NS(=O)(=O)CC)CC4)C3)C2)cn2c(C)ncc12)C(C)C [Example 89, N-ethyl-5-fluoro-2-[3-methyl-6-(6-{[(1r,4r)-4-ethanesulfonamidocyclohexyl]methyl}-2,6-diazaspirocyclo[3.3]heptan-2-yl)imidazo[1,5-a]pyridin-8-yl]-N-(isopropyl)benzamide]",173,
CCN(C(=O)c1cc(F)ccc1-c1cc(N2CCN(C(=O)[C@@H]3CCCN3)CC2)cn2c(C)ncc12)C(C)C [Example 92],,46.5
"CCN(C(=O)c1cc(F)ccc1-c1cc(N2CCN(C(=O)C3NC4CCC3CC4)CC2)cn2c(C)nc(Cl)c12)C(C)C [Example 93, 2-(1-chloro-3-methyl-6-{4-[(1R,3S,4S)-2-azabicyclo[2.2.2]octan-3-carbonyl]piperazin-1-yl}imidazo[1,5-a]pyridin-8-yl)-N-ethyl-5-fluoro-N-(isopropyl)benzamide]",21,
"Cc1ncc2c(-c3ccc(F)cc3C(=O)N(CC(F)F)C(C)C)cc(N3CCN(C(=O)C4NC5CCC4CC5)CC3)cn12 [Example 94, N-(2,2-difluoroethyl)-5-fluoro-2-(3-methyl-6-{4-[(1R,3S,4S)-2-azabicyclo[2.2.2]octan-3-carbonyl]piperazin-1-yl}imidazo[1,5-a]pyridin-8-yl)-N-(isopropyl)benzamide]",44.5,
CCN(C(=O)c1cc(F)ccc1-c1cc(C2CCN(C(=O)[C@@H]3CCCCN3)C2)cn2c(C)ncc12)C(C)C (some centres unmarked) [Example 97],210,
"CCS(=O)(=O)NC1CCC(CN2CCC(c3cc(-c4ccc(F)cc4C(=O)N4CCC(F)(F)CC4C)c4cnn(C)c4c3)C2)CC1 (centres unmarked) [Example 101, N-{4-[(3-{4-[2-(4,4-difluoro-2-methylpiperidin-1-carbonyl)-4-fluorophenyl]-1-methyl-1H-indazol-6-yl}pyrrolidin-1-yl)methyl]cyclohexyl}ethan-1-sulfonamide]",,45.5
CCN(C(=O)c1cc(F)ccc1-c1cc(C2CCN(C[C@H]3C[C@H](NS(=O)(=O)CC)C3)C2)cn2c(C)ncc12)C(C)C (some centres unmarked) [Example 102],,70.5
